# Results reported in patent US12234207B2, “Halo-(3-(phenylsulfonyl)prop-1-enyl)pyridine derivative and use thereof” (Cureverse Incorporated, priority 2018, dated 2025).
# Several values for one entry are separate records, joined by “and”; a condition that tells them apart may be missing. Equal entries are not always repeated.
# How the values were obtained:
# [1] = background statement; cited from earlier work
# [2] = Solubility in water; type: physicochemical
# Excerpt: In the development of new drugs, the solubility of drugs is one of the very important factors associated with the bio-absorption rate. […] In addition, drugs with low solubility may crystallize in tissues or cause serious toxicity, and thus, the FDA requires additional research results on oral drugs with low solubility. Furthermore, low solubility may also be the biggest cause of failure in the development of candidate materials.
# [3] = target: T1, CYP 2C9 (Homo sapiens, UniProt P11712); assay: Inhibition of CYP activity in human liver microsomes, 2C9; type: in vitro ADME; settings: 10 μM compound, human liver microsomes 0.25 mg/mL, % activity relative to the negative control
# T1 construct: from tissue; host or cells: human liver microsomes
# Experimental: (§1) Thereafter, the reaction was terminated by adding an acetonitrile solution containing an internal standard substrate (terfenadine), followed by centrifugation (14,000 rpm, 4° C.) for 5 minutes. Subsequently, the supernatant was injected into the LC-MS/MS system, and the metabolites of the substrate drugs were simultaneously analyzed to evaluate the inhibitory ability of these compounds on drug metabolic enzymes. The metabolites of each CYP isoenzyme indicator drug generated through the above reaction were analyzed using the Shimadzu Nexera XR system and TSQ vantage (Thermo). A Kinetex C18 column was used as the HPLC column, and distilled water containing 0.1% formic acid and acetonitrile containing 0.1% formic acid were used as the mobile phase. The generated metabolites were quantified using the quantification mode of multiple reaction monitoring (MRM), and data were analyzed with Xcalibur (version 1.6.1).
# [4] = background statement; cited from earlier work; remark: listed apart in the source
# [5] = target: T2, CYP 2C19 (Homo sapiens, UniProt P33261); assay: Inhibition of CYP activity in human liver microsomes, 2C19; type: in vitro ADME; settings: 10 μM compound, human liver microsomes 0.25 mg/mL; % activity relative to the negative control
# T2 construct: from tissue; host or cells: human liver microsomes
# Experimental: as §1
# [6] = target: T3, CYP 2D6 (Homo sapiens, UniProt P10635); assay: Inhibition of CYP activity in human liver microsomes, 2D6; type: in vitro ADME; settings: 10 μM compound, human liver microsomes 0.25 mg/mL; % activity relative to the negative control
# T3 construct: from tissue; host or cells: human liver microsomes
# Experimental: as §1
# [7] = test system: Nrf2; assay: Nrf2 functional cell-based assay (DisoveRx), luminescence; settings: relative to Compound 15
# [8] = target: hERG channel (Homo sapiens, UniProt Q12809); assay: hERG channel-binding inhibition (fluorescent tracer polarization); settings: hERG channel-containing membrane
# Excerpt: The human ether-a-go-go-related gene (hERG) ion channel is an important component of cardiac repolarization, and inhibitors of this channel can induce arrhythmia and sudden death. […] When a fluorescent hERG channel tracer binds to a membrane containing the hERG channel protein, the rotation of the tracer is restricted, thereby maintaining a high polarization state. However, when a competitive inhibitor binds to the hERG channel, the tracer is competitively pushed away from the membrane and depolarized as it loses its direction.
# [9] = background statement, cited from earlier work
# [10] = target: T4, CYP 3A4 (Homo sapiens, UniProt P08684); assay: Inhibition of CYP activity in human liver microsomes, 3A4; type: in vitro ADME; settings: 10 μM compound, human liver microsomes 0.25 mg/mL; % activity relative to the negative control
# T4 construct: from tissue; host or cells: human liver microsomes
# Experimental: as §1
# [11] = test system: MPTP-induced Parkinson's disease model; assay: Vertical grid test in MPTP-induced Parkinson's disease mice; type: in vivo, C57/BL6 mice; settings: orally 20 mg/mL once a day for 3 days from the day before MPTP; test 6 days after MPTP
# Experimental: (§2) A specifically designed animal experiment schedule is shown at the top of FIG. 3. […] The MPTP-induced Parkinson's disease model was prepared by injecting 20 mg/kg of MPTP intraperitoneally at 2-hour intervals a total of 4 times in a day. In the negative control group, physiological saline solution containing no MPTP was injected at the same time. In order to confirm whether or not Parkinson's disease was induced, motor impairment caused by dopaminergic neuronal cell death, known as the main symptom of Parkinson's disease, was confirmed by a vertical grid test and a coat-hanger test.
# The vertical grid test evaluates the time to climb down when an experimental animal model is placed on a vertical ladder. In the present invention, the time to turn towards the floor and the total time taken to climb down from the ladder were measured once the mice were placed on a ladder.
# [12] = test system: Nrf2; assay: Western blot of Nrf2 in nuclear extract of BV2 cells; type: cell-based; settings: 0 μM to 10 μM, 6 hours, relative to Lamin B1
# Experimental: Through Experimental Example 1, the activation of Nrf2 by the compounds of the present invention was indirectly confirmed. Thus, in order to directly confirm the effect of the compounds of the present invention on Nrf2 activation, Western blot was performed. […] Specifically, BV2 cells were loaded in a 25T flask at a density of 2×10^6 cells/flask in an amount of 4 mL and incubated in RPM1640 medium for 24 hours. […] The thus-incubated cells were recovered, and the nucleus and cytoplasmic extracts were separated. The thus-separated nuclear extract was electrophoresed by 10% SDS-PAGE, transferred to a PVDF membrane, and blocked with bovine serum albumin (BSA). Thereafter, the amount of Nrf2 protein in the nucleus was measured using an anti-Nrf2 antibody, and the results are shown in FIG. 1. The amount of Nrf2 was measured relative to Lamin B1, which refers to the same amount of nuclear extract.
# [13] = test system: dopaminergic neurons; assay: Tyrosine hydroxylase immunohistochemical staining of corpus striatum and substantia nigra, MPTP mice; type: in vivo, C57/BL6 mice; settings: Compound 15 orally
# Excerpt: From the results of Experimental Example 8, the effect of restoring exercise ability by the compound of the present invention was confirmed. In order to confirm whether the recovery of such exercise ability was due to the neuroprotective effect of the compounds of the present invention, brains were excised from mice and analyzed by immunohistochemical staining using tyrosine hydroxylase used as a marker for dopaminergic neurons. As a site for analysis, the corpus striatum and substantia nigra, which are concentrated with dopaminergic neurons, were selected. Specifically, after anesthetizing the mice in the negative control group, the positive control group, and the experimental group with avertin, physiological saline and 4% formaldehyde were injected into the heart, and the brain was excised, which was sequentially immersed in 4% formaldehyde and 30% sucrose, and stored in the refrigerator for one day each. Thereafter, the tissue fragments of the corpus striatum and substantia nigra were obtained from the stored brain using a cryosectioning machine. The brain tissue fragments were stained by DAB staining using a tyrosine hydroxylase antibody, which is specifically expressed in dopaminergic neurons, by immunohistochemical staining, and observed with a microscope, and the results are shown in FIG. 4.
# [14] = test system: MPTP-induced Parkinson's disease model; assay: Coat-hanger test in MPTP-induced Parkinson's disease mice; type: in vivo, C57/BL6 mice; settings: orally 20 mg/mL once a day for 3 days from the day before MPTP; time limit 3 minutes
# Experimental: as §2
# The coat-hanger test, which is another behavioral experiment that evaluates exercise ability, was conducted as follows, as shown in the bottom left of FIG. 3: when the mice were placed in the middle of a hanger 30 cm away from the floor, the mice moved toward a safe position on the top of the hanger while being hanged, and a score was assigned according to the position at the time point with a time limit of 3 minutes. The specific experimental method and the result are shown at the bottom of FIG. 3. As shown in the graph at the bottom of FIG. 3, most of the negative control moved to the top of the hanger, corresponding to 5 points, but in the case of the positive control, 2 to 3 points were recorded because the mice mainly stopped at both ends of the bottom of the hanger.
# [15] = test system: GCLC, GCLM, and HO-1; assay: Western blot of Nrf2-related antioxidant enzymes in BV2 cells; type: cell-based; settings: 0 μM to 10 μM, 24 hours, relative to actin
# Excerpt: As a transcription factor, Nrf2 acts to protect cells by increasing antioxidant enzymes in the nucleus. Through preceding Experimental Examples 1 and 6, the activation of Nrf2 by the compound of the present invention was confirmed directly or indirectly. Thus, whether the activated Nrf2 increases antioxidant enzymes was confirmed by measuring the amount of antioxidant enzymes using Western blot. As antioxidant enzymes to be detected, GCLC, GCLM, and HO-1, expression of which is known to increase due to Nrf2, were selected. Specifically, BV2 cells were loaded at a density of 5×10^5 cells/well in a 6-well plate in an amount of 1.5 mL, and incubated in RPM1640 medium for 24 hours. […] The thus-incubated cells were recovered and lysed to extract the total protein, and then subjected to electrophoresis by 10% SDS-PAGE. The total extract subjected to electrophoresis was transferred to a PVDF membrane and then blocked with bovine serum albumin. Thereafter, the amount of antioxidant enzymes expressed in cells was measured using antibodies corresponding to each antioxidant enzyme, and the results are shown in FIG. 2.
# [16] = when administered into the body
# T1 sequence (P11712 whole entry): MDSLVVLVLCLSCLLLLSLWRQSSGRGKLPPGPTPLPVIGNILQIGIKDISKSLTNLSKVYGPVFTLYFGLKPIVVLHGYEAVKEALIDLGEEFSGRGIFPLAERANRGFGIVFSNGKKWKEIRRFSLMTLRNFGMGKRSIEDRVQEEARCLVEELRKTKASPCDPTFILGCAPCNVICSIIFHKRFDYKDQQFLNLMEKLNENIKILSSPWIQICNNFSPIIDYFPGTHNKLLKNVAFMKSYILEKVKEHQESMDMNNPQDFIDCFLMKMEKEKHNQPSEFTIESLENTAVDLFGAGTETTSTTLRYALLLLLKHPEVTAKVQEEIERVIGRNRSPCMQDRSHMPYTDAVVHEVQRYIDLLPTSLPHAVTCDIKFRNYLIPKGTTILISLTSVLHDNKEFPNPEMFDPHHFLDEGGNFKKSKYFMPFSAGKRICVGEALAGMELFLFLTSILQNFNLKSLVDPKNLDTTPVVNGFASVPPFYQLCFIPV
# Chain of hERG channel (Q12809 whole entry): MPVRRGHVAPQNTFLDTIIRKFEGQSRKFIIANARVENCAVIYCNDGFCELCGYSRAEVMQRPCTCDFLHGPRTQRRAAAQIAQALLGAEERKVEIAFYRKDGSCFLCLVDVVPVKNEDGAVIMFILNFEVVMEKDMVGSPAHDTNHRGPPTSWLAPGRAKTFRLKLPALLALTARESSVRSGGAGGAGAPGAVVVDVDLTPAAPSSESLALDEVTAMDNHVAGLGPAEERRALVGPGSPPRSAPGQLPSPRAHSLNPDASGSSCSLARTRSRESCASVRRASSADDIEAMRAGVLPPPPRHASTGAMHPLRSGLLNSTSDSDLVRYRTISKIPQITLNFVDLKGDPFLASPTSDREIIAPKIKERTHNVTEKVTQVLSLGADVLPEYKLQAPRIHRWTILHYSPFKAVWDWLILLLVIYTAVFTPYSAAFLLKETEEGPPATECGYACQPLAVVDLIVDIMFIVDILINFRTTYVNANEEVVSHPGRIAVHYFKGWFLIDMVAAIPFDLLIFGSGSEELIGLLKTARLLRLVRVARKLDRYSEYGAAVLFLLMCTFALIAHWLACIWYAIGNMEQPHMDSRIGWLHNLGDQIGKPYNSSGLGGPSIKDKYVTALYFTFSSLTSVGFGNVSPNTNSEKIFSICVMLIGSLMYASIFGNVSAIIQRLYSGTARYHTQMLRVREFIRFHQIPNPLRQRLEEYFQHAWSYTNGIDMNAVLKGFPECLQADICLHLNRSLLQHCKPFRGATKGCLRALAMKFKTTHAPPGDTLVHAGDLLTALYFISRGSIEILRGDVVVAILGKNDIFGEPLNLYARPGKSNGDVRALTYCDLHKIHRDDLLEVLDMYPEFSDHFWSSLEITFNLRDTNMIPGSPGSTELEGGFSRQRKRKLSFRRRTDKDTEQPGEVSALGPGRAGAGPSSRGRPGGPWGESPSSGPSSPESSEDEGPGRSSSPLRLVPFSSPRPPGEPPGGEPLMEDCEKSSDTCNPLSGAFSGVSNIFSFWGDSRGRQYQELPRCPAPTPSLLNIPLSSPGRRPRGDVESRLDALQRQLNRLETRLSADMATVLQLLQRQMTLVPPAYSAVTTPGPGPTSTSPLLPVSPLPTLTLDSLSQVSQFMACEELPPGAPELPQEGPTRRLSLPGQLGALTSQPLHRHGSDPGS
# T3 sequence (P10635 whole entry): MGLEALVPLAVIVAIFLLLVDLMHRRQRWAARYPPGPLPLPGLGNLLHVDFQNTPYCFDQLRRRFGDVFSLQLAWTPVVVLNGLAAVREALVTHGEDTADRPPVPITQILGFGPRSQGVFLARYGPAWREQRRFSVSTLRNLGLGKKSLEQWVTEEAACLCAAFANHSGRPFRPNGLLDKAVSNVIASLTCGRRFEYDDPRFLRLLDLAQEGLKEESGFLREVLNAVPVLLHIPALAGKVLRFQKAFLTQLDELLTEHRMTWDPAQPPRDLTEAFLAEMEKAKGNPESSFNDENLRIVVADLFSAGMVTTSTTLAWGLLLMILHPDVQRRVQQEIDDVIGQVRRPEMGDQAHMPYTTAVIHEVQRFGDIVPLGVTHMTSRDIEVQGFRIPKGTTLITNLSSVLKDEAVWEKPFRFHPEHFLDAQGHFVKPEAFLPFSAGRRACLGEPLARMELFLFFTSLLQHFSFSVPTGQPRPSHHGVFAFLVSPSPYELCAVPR
# T2 sequence (P33261 whole entry): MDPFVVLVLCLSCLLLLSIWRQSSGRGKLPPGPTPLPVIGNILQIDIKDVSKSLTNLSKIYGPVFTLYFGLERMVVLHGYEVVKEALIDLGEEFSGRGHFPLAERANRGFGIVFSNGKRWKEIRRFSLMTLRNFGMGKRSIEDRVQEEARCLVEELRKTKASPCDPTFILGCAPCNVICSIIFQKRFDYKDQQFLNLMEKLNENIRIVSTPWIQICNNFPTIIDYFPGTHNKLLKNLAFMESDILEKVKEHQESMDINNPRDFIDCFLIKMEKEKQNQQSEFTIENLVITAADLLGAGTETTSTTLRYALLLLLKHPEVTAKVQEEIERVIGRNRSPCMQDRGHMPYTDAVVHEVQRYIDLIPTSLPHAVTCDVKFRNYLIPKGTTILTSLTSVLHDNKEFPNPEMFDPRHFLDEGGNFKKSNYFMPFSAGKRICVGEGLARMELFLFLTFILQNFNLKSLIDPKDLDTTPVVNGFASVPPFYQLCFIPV
# T4 sequence (P08684 whole entry): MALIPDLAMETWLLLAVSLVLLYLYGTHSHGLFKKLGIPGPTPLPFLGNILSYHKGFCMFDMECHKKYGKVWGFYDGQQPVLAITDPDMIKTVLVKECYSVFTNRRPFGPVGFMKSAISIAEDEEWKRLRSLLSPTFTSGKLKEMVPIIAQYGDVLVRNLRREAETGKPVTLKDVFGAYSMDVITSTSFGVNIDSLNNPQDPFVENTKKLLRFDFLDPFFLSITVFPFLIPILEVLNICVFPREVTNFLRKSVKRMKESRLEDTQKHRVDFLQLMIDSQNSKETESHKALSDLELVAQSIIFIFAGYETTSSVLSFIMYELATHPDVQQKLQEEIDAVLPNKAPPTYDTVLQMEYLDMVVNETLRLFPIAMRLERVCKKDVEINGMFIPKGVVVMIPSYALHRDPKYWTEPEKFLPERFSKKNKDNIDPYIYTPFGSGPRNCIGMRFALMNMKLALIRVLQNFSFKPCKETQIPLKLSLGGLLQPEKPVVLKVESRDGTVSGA
solubility [2] [µg/mL],CYP 2C9 activity [3] [%],CYP 2C9 activity ([3]; listed as Comparative Example 1) [%],CYP 2C19 activity [5] [%],CYP 2D6 activity [6] [%],CYP 3A4 activity [10] [%],SMILES,Time until dissipated when administered into the body [1] [h],Solubility in water (in words) [4],Effect of inducing Nrf2 activity as % of the level of Compound 15 [7],IC50 [8],Cardiac toxicity [9],"Bioavailability [9, 16]","Drug metabolic stability [9, 16]",Vertical grid test: time to turn [11],Vertical grid test: total time to climb down [11],Amount of Nrf2 protein in the nucleus [12],Tyrosine hydroxylase staining of corpus striatum and substantia nigra [13],"Coat-hanger test score, average [14] [points]","Expression of Nrf2 and antioxidant enzymes GCLC, GCLM, and HO-1 [15]"
,,,,,,"C[S+]([O-])CCCCN=C=S (centres unmarked) [SFN (sulforaphane), 1-isothiocyanato-4-methylsulfinylbutane]",≤ 1,,,,,,,,,,,,
≤ 10,100.0,100,16.8,54.9,55.6,"COc1ccccc1S(=O)(=O)/C=C/c1ccccc1Cl [VSC2, (E)-1-chloro-2-(2-(2-methoxyphenylsulfonyl)vinyl)benzene, reference compound]",,low,about 60%,1000 nM and 1200 nM,cardiac toxicity,low,low,,,,,,
≥ 10000,,,,,,"Cl.O=S(=O)(/C=C/c1ncccc1F)c1ccc(OCCCN2CCOCC2)cc1 [Compound 15, (E)-4-(3-(4-(2-(3-fluoropyridin-2-yl)vinylsulfonyl)phenoxy)propyl)morpholine hydrochloride]",,,,,,,,reduced again to a level similar to that of the negative control group,reduced again to a level similar to that of the negative control group,promotes the activation of Nrf2 in a concentration-dependent manner,the staining became dark again,≥ 4,increased the expression of antioxidant enzymes through Nrf2 activation in a concentration-dependent manner
